Assay results reported in publication PMC12019328, “Discovery of an ApoE4-targeted small-molecule SirT1 enhancer for the treatment of Alzheimer’s disease” (Scientific Reports, 2025).

Test system: SirT1 promoter
Assay: ChIP analysis of SirT1 promoter occupancy in Kelly cells
Assay type: cell-based, human
Details: vs DMSO
Protocol: Correlations between gene mRNAs in DDL-214, -218, and -219-treated Kelly cells
As described in the main manuscript, human Kelly neuroblastoma cells were treated with
racemate DDL-214, and enantiomers DDL-218 and -219. Levels of PRMT5, NFYb, SirT1, and
PPP2r5e mRNAs were then determined. The correlations between these gene mRNAs for all
Data points are graphed by
treatment in Figure S6D-F and their significant correlation (Pearson correlation 0.914) in
bioinformatic analysis of gene co-expression of 2300 human brain RNAseq samples performed
at Genefriends.org (Raina, et al. (2022) GeneFriends: gene co-expression databases and tools
for humans and model organisms, Nucleic Acids Research, 2022;
Figure S6. Correlation of gene mRNA levels in DDL-treated Kelly cells. All data points are shown for (A)
PRMT5 vs. NFYb, (B) SirT1 vs. PRMT5, and (C) PPP2r5E vs. SirT1. R2 values are shown on the upper
right of each panel. (D-F) The same data with treatment (DDL-214, -218, or -219) indicated by symbols
shown below panel (E). The statistical 'r' value and significance determined by Pearsons Correlation
ChIP assay for SirT1 gene promoter occupancy by ApoE4 and RNA polymerase […]
promoter by ApoE4 or RNA Polymerase (RNAP) was determined using an EZ-ChIP kit (Millipore […]
DNA was purified. The immunoprecipitated DNA was measured for the level of immuno-captured […]

## CC(N)C(=O)OC(C)(C)Cc1ccncc1 (centres unmarked) [DDL-218]
  ApoE4 binding to SirT1 promoter: lower, but the effect was not significant
  RNAP occupancy of SirT1 promoter: increased
